The target in one assay is T1, Beta2 (Homo sapiens, UniProt P07550).
T1 construct: purchased NIMH Psychoactive Drug Screening Program (PDSP)
The assay is described as follows: PDSP primary binding Beta2. Conditions: 1.5 h; primary binding, 10,000 nM; last figure of the line = mean of the 4 before it; read-out: Beta2, PDSP raw data, mean. The method, then: (§1) To determine if any off-target receptor-binding effects are present, all the novel ligands were sent to the National Institute of Mental Health (NIMH), Psychoactive Drug Screening Program (PDSP). The ligands were screened over a panel of 47 receptors, ion channels, and transporters to determine any other possible interactions with […]. The hERG-binding was also determined. […] No binding of the test compounds to calcium channels was observed. […] It is necessary to screen the compounds for hERG-binding during the early process of drug discovery. The unintentional binding of many drugs to hERG can cause blockade of hERG K+ channels in the heart, which can cause many side effects including cardiac arrhythmias and sudden death. […] All of the α5 imidazodiazepines were tested for hERG-binding.
(§2) The NIMH PDSP assay protocol book [https://kidbdev.med.unc.edu/databases/PDSP%20Protocols%20II%202013-03-28.pdf accessed on 23 April 2023]. describes the protocols for primary and secondary radio-ligand binding assays. These assays were carried out in a final volume of 125 µL per well in the appropriate binding buffer.
(§3) The binding of a ligand to a receptor, ion channel, or transporter was determined in the […] of 10 µM of the appropriate reference compound. […] Plates were incubated in the dark for 90 min at rt, and the reactions were stopped by vacuum filtration onto 0.3% polyethyleneimine (PEI) soaked 96-well filter mats using a 96-well Filtermateharvester. This was followed by three washes with cold PBS buffer. Radioactivity was then counted on a Microbeta counter. Nonlinear regression was used to analyze the data with N = 6 replicates.

For a further assay, the target named is T2, Beta3 (Homo sapiens, UniProt P13945).
T2 construct: purchased NIMH Psychoactive Drug Screening Program (PDSP)
The assay is described as follows: PDSP primary binding Beta3. As to conditions: 1.5 h; primary binding, 10,000 nM; last figure of the line = mean of the 4 before it; read-out: Beta3, PDSP raw data, mean. The procedure:
as §1, §2, §3

In a further assay the target is T3, Beta1 (Homo sapiens, UniProt P08588).
T3 construct: purchased NIMH Psychoactive Drug Screening Program (PDSP)
The assay is described as follows: PDSP primary binding Beta1. Conditions: 1.5 h; primary binding, 10,000 nM; last figure of the line = mean of the 4 before it; read-out: Beta1, PDSP raw data, mean. The method, then:
as §1, §2, §3

Assay [1] has as its target kappa opioid receptors (KOR) (Homo sapiens, UniProt P41145). The assay is described as follows: PDSP radioligand binding at KOR. As to conditions: for inhibition at 10 µM: 1.5 h.
Text: Opioid receptors are a family of inhibitory G-coupled protein receptors where opioids act as the ligand. The kappa opioid receptors (KOR), µ and δ opioid receptors (MOR and DOR), and nociception opioid receptor (NOP) fall under the family of opioids receptors. It has been reported that oxadiazole imidazodiazepines can mediate analgesic and anti-inflammatory properties mediated also by the κ opioid receptor (KOR). The binding at KOR is usually silent. The affinities of the test compounds for KOR, DOR, and MOR were determined using radioligand binding assays at a screening concentration of 10,000 nM in collaboration with the National Institute of Mental Health’s Psychoactive Drug Screening Program (PDSP), as mentioned before. Concentration-dependent experiments were conducted to determine Ki values for the compounds that exceeded more than 50% radioligand displacement in primary binding assays.
as §2, §3

The target in another assay is T4, Alpha2B (Homo sapiens, UniProt P18089).
T4 construct: purchased NIMH Psychoactive Drug Screening Program (PDSP)
T4 sequence (P18089 1-450): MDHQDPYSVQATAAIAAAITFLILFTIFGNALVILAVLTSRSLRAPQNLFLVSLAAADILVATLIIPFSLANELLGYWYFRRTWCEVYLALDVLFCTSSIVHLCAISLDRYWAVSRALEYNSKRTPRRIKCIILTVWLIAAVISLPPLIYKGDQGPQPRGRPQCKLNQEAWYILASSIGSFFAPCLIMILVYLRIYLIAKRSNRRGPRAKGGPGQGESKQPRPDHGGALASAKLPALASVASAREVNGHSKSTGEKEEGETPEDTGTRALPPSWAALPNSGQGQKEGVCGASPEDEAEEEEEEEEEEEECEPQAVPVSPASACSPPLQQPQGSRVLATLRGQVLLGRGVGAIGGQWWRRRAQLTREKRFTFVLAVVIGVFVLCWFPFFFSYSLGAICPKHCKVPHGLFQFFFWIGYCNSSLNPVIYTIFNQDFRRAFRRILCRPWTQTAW
The experiment in a line: PDSP primary binding Alpha2B. As to conditions: 1.5 h; primary binding, 10,000 nM; last figure of the line = mean of the 4 before it; read-out: Alpha2B, PDSP raw data, mean. The method, then:
as §1, §2, §3

Another assay relates to NR2B. The experiment in a line: PDSP primary binding NR2B. Conditions: primary binding, 10,000 nM; last figure of the line = mean of the 4 before it. The procedure: as §1, §2, §3
A further assay addresses T5, 5-HT4 (Homo sapiens, UniProt Q13639).
T5 construct: purchased NIMH Psychoactive Drug Screening Program (PDSP)
The assay is described as follows: PDSP primary binding 5-HT4. Conditions: 1.5 h; primary binding, 10,000 nM; last figure of the line = mean of the 4 before it; read-out: 5-HT4, PDSP raw data, mean. The method, then:
as §1, §2, §3

Another assay deals with T6, D1 (Homo sapiens, UniProt P21728).
T6 construct: purchased NIMH Psychoactive Drug Screening Program (PDSP)
The assay is described as follows: PDSP primary binding D1. Conditions: 1.5 h; primary binding, 10,000 nM; last figure of the line = mean of the 4 before it; read-out: D1, PDSP raw data, mean. The procedure:
as §1, §2, §3

Another assay has as its target T7, H3 (Homo sapiens, UniProt Q9Y5N1).
T7 construct: purchased NIMH Psychoactive Drug Screening Program (PDSP)
The experiment in a line: PDSP primary binding H3. As to conditions: primary binding, 10,000 nM; last figure of the line = mean of the 4 before it; read-out: H3, PDSP raw data, mean. The procedure: as §1, §2, §3

The target of another assay is T8, A1 (Homo sapiens, UniProt P30542).
T8 construct: purchased NIMH Psychoactive Drug Screening Program (PDSP)
T8 sequence (P30542 1-326): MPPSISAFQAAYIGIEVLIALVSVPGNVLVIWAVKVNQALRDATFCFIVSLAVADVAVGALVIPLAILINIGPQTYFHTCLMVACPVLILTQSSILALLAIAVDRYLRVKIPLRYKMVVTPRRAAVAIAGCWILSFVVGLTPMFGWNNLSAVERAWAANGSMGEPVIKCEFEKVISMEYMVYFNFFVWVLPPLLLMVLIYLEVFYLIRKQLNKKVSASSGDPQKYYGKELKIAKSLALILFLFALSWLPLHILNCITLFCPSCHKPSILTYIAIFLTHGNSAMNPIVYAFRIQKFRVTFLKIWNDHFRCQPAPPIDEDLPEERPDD
The assay is described as follows: PDSP primary binding A1. Conditions: 1.5 h; primary binding, 10,000 nM; last figure of the line = mean of the 4 before it; read-out: A1, PDSP raw data, mean. The procedure:
as §1, §2, §3

Another assay deals with T9, 5-HT5A (Homo sapiens, UniProt P47898).
T9 construct: purchased NIMH Psychoactive Drug Screening Program (PDSP)
The experiment in a line: PDSP primary binding 5-HT5A. As to conditions: 1.5 h; primary binding, 10,000 nM; last figure of the line = mean of the 4 before it; read-out: 5-HT5A, PDSP raw data, mean. The procedure:
as §1, §2, §3

Where [2] appears, read: at 10,000 nM, N = 5, [3H]-U69593 0.83 nM, read-out: Primary Binding %KOR.
[3] abbreviates: primary binding, 10,000 nM, last figure of the line = mean of the 4 before it, read-out: KOR, PDSP raw data, mean.

Read-outs that look alike come from different tables or passages of the source.

One may read the Ki as a measure of affinity in units of concentration, obtained from inhibition or displacement.

T7 sequence (Q9Y5N1 whole entry): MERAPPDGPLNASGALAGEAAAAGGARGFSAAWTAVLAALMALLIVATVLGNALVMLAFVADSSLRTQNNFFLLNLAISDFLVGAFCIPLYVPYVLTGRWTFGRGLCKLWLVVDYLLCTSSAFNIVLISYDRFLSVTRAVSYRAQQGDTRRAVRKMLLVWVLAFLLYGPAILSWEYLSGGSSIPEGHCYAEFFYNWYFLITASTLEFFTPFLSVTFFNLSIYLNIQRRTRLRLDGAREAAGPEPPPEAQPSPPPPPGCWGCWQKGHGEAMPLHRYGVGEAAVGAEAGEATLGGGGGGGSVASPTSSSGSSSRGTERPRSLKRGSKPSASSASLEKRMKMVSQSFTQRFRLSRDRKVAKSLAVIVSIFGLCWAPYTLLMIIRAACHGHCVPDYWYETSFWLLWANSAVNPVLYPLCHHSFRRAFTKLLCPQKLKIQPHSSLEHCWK
Chain of kappa opioid receptors (KOR) (P41145 whole entry): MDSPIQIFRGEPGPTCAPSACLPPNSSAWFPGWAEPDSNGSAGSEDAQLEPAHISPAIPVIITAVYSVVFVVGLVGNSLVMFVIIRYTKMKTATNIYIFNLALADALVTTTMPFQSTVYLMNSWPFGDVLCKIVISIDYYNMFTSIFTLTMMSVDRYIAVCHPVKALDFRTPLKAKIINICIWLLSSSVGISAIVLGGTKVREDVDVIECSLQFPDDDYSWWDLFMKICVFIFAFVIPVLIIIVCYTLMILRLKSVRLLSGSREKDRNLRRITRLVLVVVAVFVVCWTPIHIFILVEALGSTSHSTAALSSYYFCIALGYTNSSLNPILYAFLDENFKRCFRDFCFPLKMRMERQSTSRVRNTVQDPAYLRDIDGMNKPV
T9 sequence (P47898 whole entry): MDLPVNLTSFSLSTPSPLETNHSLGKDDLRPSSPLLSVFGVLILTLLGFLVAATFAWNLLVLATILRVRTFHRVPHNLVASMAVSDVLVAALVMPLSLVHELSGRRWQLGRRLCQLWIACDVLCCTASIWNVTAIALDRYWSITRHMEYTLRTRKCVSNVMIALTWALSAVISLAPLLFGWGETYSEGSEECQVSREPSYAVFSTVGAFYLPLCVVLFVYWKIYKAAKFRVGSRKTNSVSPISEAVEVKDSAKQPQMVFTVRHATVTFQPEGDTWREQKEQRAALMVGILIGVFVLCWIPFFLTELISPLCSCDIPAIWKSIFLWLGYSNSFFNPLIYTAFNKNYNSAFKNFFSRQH
T6 sequence (P21728 whole entry): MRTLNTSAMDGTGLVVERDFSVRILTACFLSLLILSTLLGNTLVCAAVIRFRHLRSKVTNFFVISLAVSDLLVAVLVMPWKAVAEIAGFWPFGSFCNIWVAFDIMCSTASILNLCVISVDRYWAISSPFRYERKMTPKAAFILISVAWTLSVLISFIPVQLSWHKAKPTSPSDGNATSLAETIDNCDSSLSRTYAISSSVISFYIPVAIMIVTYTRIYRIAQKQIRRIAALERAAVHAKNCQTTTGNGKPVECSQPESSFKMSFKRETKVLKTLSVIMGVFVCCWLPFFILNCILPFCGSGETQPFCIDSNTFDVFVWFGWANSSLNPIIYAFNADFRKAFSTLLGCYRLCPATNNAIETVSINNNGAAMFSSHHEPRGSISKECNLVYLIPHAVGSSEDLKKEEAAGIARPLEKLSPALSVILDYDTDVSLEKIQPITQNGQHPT
T1 sequence (P07550 whole entry): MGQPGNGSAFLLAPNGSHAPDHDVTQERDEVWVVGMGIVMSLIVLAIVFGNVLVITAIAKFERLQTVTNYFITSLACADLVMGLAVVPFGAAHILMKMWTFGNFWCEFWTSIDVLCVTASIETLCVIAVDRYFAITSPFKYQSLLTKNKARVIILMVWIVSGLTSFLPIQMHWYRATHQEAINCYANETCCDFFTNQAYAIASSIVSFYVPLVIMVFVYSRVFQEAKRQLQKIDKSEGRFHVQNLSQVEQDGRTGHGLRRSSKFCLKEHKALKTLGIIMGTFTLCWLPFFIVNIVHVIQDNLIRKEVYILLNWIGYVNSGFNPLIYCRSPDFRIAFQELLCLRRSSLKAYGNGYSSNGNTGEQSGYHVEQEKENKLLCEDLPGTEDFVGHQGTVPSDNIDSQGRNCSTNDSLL
T5 sequence (Q13639 whole entry): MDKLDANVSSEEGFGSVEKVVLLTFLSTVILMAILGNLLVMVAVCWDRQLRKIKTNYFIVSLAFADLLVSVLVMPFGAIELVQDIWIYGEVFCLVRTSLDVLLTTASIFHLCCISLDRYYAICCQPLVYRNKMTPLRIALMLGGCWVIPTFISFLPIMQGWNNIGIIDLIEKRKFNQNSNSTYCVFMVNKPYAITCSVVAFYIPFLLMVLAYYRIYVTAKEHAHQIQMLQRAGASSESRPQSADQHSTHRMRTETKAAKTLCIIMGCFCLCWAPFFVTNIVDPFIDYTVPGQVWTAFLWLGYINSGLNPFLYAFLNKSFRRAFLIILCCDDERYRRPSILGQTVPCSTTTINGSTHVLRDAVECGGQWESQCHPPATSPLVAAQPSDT
T2 sequence (P13945 whole entry): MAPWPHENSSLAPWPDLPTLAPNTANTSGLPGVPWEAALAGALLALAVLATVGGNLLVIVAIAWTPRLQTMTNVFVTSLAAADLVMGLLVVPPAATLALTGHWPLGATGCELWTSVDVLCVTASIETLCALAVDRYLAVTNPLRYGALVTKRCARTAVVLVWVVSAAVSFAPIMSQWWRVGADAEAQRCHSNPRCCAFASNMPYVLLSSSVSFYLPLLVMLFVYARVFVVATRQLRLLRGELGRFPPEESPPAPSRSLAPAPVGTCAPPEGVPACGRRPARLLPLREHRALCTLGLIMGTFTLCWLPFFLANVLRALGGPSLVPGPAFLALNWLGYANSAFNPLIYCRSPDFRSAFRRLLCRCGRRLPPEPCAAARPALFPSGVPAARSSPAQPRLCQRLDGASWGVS
T3 sequence (P08588 whole entry): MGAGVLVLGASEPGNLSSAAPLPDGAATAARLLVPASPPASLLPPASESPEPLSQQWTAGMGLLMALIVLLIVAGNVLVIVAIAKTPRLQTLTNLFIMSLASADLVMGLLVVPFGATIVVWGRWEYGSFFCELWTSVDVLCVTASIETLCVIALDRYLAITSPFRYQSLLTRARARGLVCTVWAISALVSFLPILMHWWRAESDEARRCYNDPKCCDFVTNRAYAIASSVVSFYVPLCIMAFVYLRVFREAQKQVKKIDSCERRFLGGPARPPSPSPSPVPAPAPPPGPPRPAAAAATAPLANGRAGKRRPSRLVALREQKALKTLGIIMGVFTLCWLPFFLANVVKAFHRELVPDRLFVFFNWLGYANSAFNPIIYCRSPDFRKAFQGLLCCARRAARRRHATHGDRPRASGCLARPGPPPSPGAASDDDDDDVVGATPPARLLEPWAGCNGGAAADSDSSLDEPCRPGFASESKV

Take `C[C@H]1N=C(c2ccccc2F)c2cc(-c3ccccc3)ccc2-n2cnc(C(=O)N(C)C)c21` [Compound 5, (R)-6-(2′-Fluorophenyl)-N,N,4-trimethyl-8-phenyl-4H-benzo[f]imidazo[1,5-a][1,4]diazepine-3-carboxamide]: the inhibition at 10 µM at Beta2 is -0.87%; at Beta3 it was -19.4%; at Beta1, -15.8%; in assay [1] (setting [2]), 53.6 ± 7.24%; in [1] (setting [3]), 53.6%; on Alpha2B, 68.9%. The inhibition at 10 µM is -14.4% on 5-HT4; -35.4% on D1; 5.94% on H3; 25.9% on A1; 53.6% at 5-HT5A. Besides, the inhibition constant (Ki) in [1] (secondary screening, N = 2, read-out: KOR (Ki)) was 2140 ± 311 nM. In addition, in the assay on NR2B, the “NR2B, PDSP raw data, mean” value was 3.79%.

With `C#Cc1ccc2c(c1)C(c1ccccc1Cl)=N[C@H](C)c1c(C(=O)NC)ncn1-2` [Compound 21, (R)-6-(2′-Chlorophenyl)-8-ethynyl-N,4-dimethyl-4H-benzo[f]imidazo[1,5-a][1,4]diazepine-3-carboxamide], the inhibition at 10 µM at Beta2 was -0.28%; on Beta3 it was 10.7%; at Beta1, 13.1%; in assay [1] (setting [2]) it was 69.6 ± 6.01%; in assay [1] (setting [3]) it was 69.6%; at Alpha2B it was -2.45%. For the same compound, the inhibition at 10 µM at 5-HT4 was 4%; on D1, 9.47%; at H3 it was 4.81%; on A1 it was -13.3%; on 5-HT5A, 2.76%. Further, the Ki in assay [1] amounted to 660 ± 159 nM. Also, in the assay with NR2B, the “NR2B, PDSP raw data, mean” value was -8.82%.

As to `C#Cc1ccc2c(c1)C(c1ccccn1)=N[C@@H](C)c1c(C(=O)NC)ncn1-2` [Compound 23, (S)-8-Ethynyl-N,4-dimethyl-6-(pyridin-2′-yl)-4H-benzo[f]imidazo[1,5-a][1,4]diazepine-3-carboxamide], the inhibition at 10 µM is -5.89% at Beta2; 0.63% on Beta3; -10.8% at Beta1; 26.9 ± 6.21% in assay [1] (setting [2]); 26.9% in assay [1] (setting [3]); 4.64% on Alpha2B. The inhibition at 10 µM on 5-HT4 is -1.06%; on D1 it was -37.2%; on H3, -12.8%; at A1 it was 10.4%; on 5-HT5A, -2.76%. For the same compound, the “NR2B, PDSP raw data, mean” value with NR2B is on record as -22.69%.

`C#Cc1ccc2c(c1)C(c1ccccc1Cl)=N[C@H](C)c1c(C(=O)N(C)CC)ncn1-2` [Compound 29]: the inhibition at 10 µM at Beta2 is -7.07%; on Beta3, 9.72%; on Beta1, 8.7%; in assay [1] (setting [2]) it was 69.1 ± 29.1%; in assay [1] (setting [3]), 69.1%; on Alpha2B, 7.23%. In addition, the inhibition at 10 µM on 5-HT4 was -6.11%; at D1 it was -31.5%; at H3, -29.5%; on A1, -6.38%; at 5-HT5A, -3.73%. For the same compound, the affinity in [1], expressed as Ki, was 392 ± 78.8 nM. Also, the “NR2B, PDSP raw data, mean” value in the assay with NR2B is given as -14.08%.

As for `C#Cc1ccc2c(c1)C(c1ccccn1)=N[C@@H](C)c1c(C(=O)N(C)C)ncn1-2` [Compound 31, (S)-8-Ethynyl-N,N,4-trimethyl-6-(pyridin-2′-yl)-4H-benzo[f]imidazo[1,5-a][1,4]diazepine-3-carboxamide], the inhibition at 10 µM is -0.05% at Beta2; -6.68% on Beta3; -16.2% on Beta1; -3.79 ± 4.99% in [1] (setting [2]); -3.79% in [1] (setting [3]); -0.93% on Alpha2B. Also, the inhibition at 10 µM is -0.81% on 5-HT4; -41.5% on D1; -5.55% on H3; 32.2% at A1; -7.46% on 5-HT5A. In the assay with NR2B, the “NR2B, PDSP raw data, mean” value was -10.18%.

(Values after article PMC10303271, “Synthesis and Receptor Binding Studies of α5 GABAAR Selective Novel Imidazodiazepines Targeted for Psychiatric and Cognitive Disorders” (Molecules, 2023).)
